Laboratory results reported in PubChem BioAssay (NCI).
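Method: 48-hour compound exposure of cells in 96-well plates, five concentrations, linear interpolation of endpoints. TGI marks complete inhibition of growth.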

Experiments:
Assay in all cases: NCI tumour cell line growth inhibition, 48 h
MDA-N = test system: MDA-N
DMS 114 small cell lung = test system: DMS 114 small cell lung
DMS 273 small cell lung = test system: DMS 273 small cell lung
HOP-18 NSCLC = test system: HOP-18 NSCLC
LXFL 529 NSCLC = test system: LXFL 529 NSCLC
RXF-631 renal = test system: RXF-631 renal
XF 498 CNS = test system: XF 498 CNS
DLD-1 colon = test system: DLD-1 colon
SNB-78 CNS = test system: SNB-78 CNS

Compound: COC(=O)C#Cc1ccc([N+](=O)[O-])cc1
- TGI (MDA-N): 8.27 µM

Compound: C=CCN(N=O)C(=O)N(CCC)CCCCC(NC(C)=O)C(=O)NCc1ccccc1 (centres undefined)
- TGI (DMS 114 small cell lung): > 100 µM
- TGI (DMS 273 small cell lung): > 100 µM
- TGI (HOP-18 NSCLC): > 100 µM
- TGI (LXFL 529 NSCLC): > 100 µM
- TGI (RXF-631 renal): > 100 µM
- TGI (XF 498 CNS): > 100 µM

Compound: COc1ccc2c(c1)[n+]([O-])c(-c1nc3ccccc3s1)c(N)[n+]2[O-]
- TGI (DLD-1 colon): > 100 µM
- TGI (DMS 273 small cell lung): > 100 µM
- TGI (HOP-18 NSCLC): > 100 µM
- TGI (LXFL 529 NSCLC): > 100 µM
- TGI (RXF-631 renal): > 100 µM
- TGI (SNB-78 CNS): > 100 µM

Compound: COC(=O)C1=CC2OC1(C)C1(CC1)C2=O (centres undefined)
- TGI (DLD-1 colon): 37.3 µM
- TGI (LXFL 529 NSCLC): 32.9 µM
- TGI (XF 498 CNS): 28.1 µM

Compound: O=C(O)c1cccc(CC(Br)C(=O)O)c1 (centres undefined)
- TGI (MDA-N): > 100 µM

Compound: COc1ccc(OC)c2cc(C3(C)SCCCS3)ccc12
- TGI (DLD-1 colon): > 100 µM
- TGI (DMS 114 small cell lung): > 100 µM
- TGI (DMS 273 small cell lung): > 100 µM
- TGI (HOP-18 NSCLC): > 100 µM
- TGI (LXFL 529 NSCLC): > 100 µM
- TGI (SNB-78 CNS): > 100 µM
- TGI (XF 498 CNS): > 100 µM

Compound: Nc1nccc(Nc2ccc(S(N)(=O)=O)cc2)n1
- TGI (MDA-N): > 100 µM

Compound: O=C(CC(=O)C(F)(F)F)c1csc2ccccc12
- TGI (DMS 114 small cell lung): > 100 µM
- TGI (DMS 273 small cell lung): > 100 µM
- TGI (LXFL 529 NSCLC): > 100 µM
- TGI (SNB-78 CNS): > 100 µM

Compound: CC12CC3CC(C)(C1)CC(N=[N+]=[N-])(C3)C2
- TGI (DLD-1 colon): > 100 µM
- TGI (DMS 114 small cell lung): > 100 µM
- TGI (DMS 273 small cell lung): > 100 µM
- TGI (HOP-18 NSCLC): > 100 µM
- TGI (LXFL 529 NSCLC): > 100 µM
- TGI (SNB-78 CNS): > 100 µM
- TGI (XF 498 CNS): > 100 µM

Compound: COC(=O)C1=CC2OC13CC1CCC3(C2=O)C1(C)C (centres undefined)
- TGI (DMS 114 small cell lung): 20.3 µM
- TGI (DMS 273 small cell lung): 24.6 µM
- TGI (HOP-18 NSCLC): 24 µM
- TGI (LXFL 529 NSCLC): 16.7 µM
- TGI (RXF-631 renal): 28 µM
- TGI (SNB-78 CNS): 36.5 µM
- TGI (XF 498 CNS): 13.4 µM

Compound: CN(CCC(=O)O)S(=O)(=O)c1ccccc1
- TGI (MDA-N): > 100 µM

Compound: Cc1ccc(C2=NO[C@@H]3C(=O)N(c4ccc(Cc5ccc(N6C(=O)[C@H]7C(c8ccc(C)cc8)=NO[C@H]7C6=O)cc5)cc4)C(=O)[C@H]23)cc1
- TGI (DLD-1 colon): > 100 µM
- TGI (DMS 114 small cell lung): > 100 µM
- TGI (DMS 273 small cell lung): > 100 µM
- TGI (HOP-18 NSCLC): > 100 µM
- TGI (LXFL 529 NSCLC): > 100 µM
- TGI (RXF-631 renal): > 100 µM
- TGI (SNB-78 CNS): > 100 µM
- TGI (XF 498 CNS): > 100 µM

Compound: CN=S(=O)(C[C@]1(O)CC2OC1C1OC(C)(C)OC21)c1ccccc1 (some centres undefined)
- TGI (DMS 114 small cell lung): > 100 µM
- TGI (DMS 273 small cell lung): > 100 µM
- TGI (LXFL 529 NSCLC): > 100 µM
- TGI (SNB-78 CNS): > 100 µM
- TGI (XF 498 CNS): > 100 µM

Compound: CC(=O)Nc1ccc(/C=C/C(=O)c2sc(C(N)=S)nc2C)cc1
- TGI (DLD-1 colon): > 100 µM
- TGI (DMS 114 small cell lung): > 100 µM
- TGI (DMS 273 small cell lung): > 100 µM
- TGI (HOP-18 NSCLC): > 100 µM
- TGI (SNB-78 CNS): > 100 µM

Compound: COc1ccccc1NC(=O)C1=C(C)NC(C)=C(C(=O)Nc2ccccc2OC)C1c1ccccc1OC
- TGI (DLD-1 colon): > 100 µM
- TGI (DMS 114 small cell lung): > 100 µM
- TGI (DMS 273 small cell lung): > 100 µM
- TGI (HOP-18 NSCLC): > 100 µM
- TGI (LXFL 529 NSCLC): > 100 µM
- TGI (RXF-631 renal): > 100 µM
- TGI (SNB-78 CNS): > 100 µM

Compound: Cc1c(Cl)ccc2c1NC(=O)C2(O)C1Cc2ccccc2C1=O (centres undefined)
- TGI (DLD-1 colon): > 100 µM
- TGI (DMS 114 small cell lung): > 100 µM
- TGI (HOP-18 NSCLC): > 100 µM
- TGI (LXFL 529 NSCLC): > 100 µM
- TGI (SNB-78 CNS): > 100 µM

Compound: COC(=O)C(=O)C(C(=O)C(=O)Nc1cc([N+](=O)[O-])ccc1[N+](=O)[O-])c1nc2ccc(C(=O)c3ccccc3)cc2[nH]c1=O (centres undefined)
- TGI (DLD-1 colon): > 100 µM
- TGI (DMS 114 small cell lung): 66.5 µM
- TGI (DMS 273 small cell lung): > 100 µM
- TGI (HOP-18 NSCLC): 95.1 µM
- TGI (LXFL 529 NSCLC): 57.9 µM
- TGI (RXF-631 renal): > 100 µM
- TGI (SNB-78 CNS): 58.6 µM
- TGI (XF 498 CNS): 30.9 µM

Compound: CC(C)(O)[C@H]1[C@@H]2OC(=O)[C@H]1[C@]1(O)C[C@H]3OC34C(=O)O[C@H]2[C@@]41C (some centres undefined) (tested in a mixture with another compound)
- TGI (MDA-N): > 100 µM

Compound: CCN(CC)c1ccc2c(c1)N=C1N=CC=CN1C2(c1ccc(N(C)C)cc1)c1ccc(N(C)C)cc1
- TGI (DLD-1 colon): 17.9 µM
- TGI (DMS 273 small cell lung): > 100 µM
- TGI (HOP-18 NSCLC): 12 µM
- TGI (LXFL 529 NSCLC): 12.3 µM
- TGI (RXF-631 renal): 19.4 µM
- TGI (SNB-78 CNS): 39.5 µM
- TGI (XF 498 CNS): 12.6 µM

Compound: O=C(NCC#CCO)C(F)(F)F
- TGI (DLD-1 colon): > 100 µM
- TGI (DMS 114 small cell lung): > 100 µM
- TGI (DMS 273 small cell lung): > 100 µM
- TGI (RXF-631 renal): > 100 µM
- TGI (SNB-78 CNS): > 100 µM
- TGI (XF 498 CNS): > 100 µM

Compound: Nc1nc(N)c(-c2ccc(Cl)cc2)c(CCC(=O)Nc2cccc(C(F)(F)F)c2)n1
- TGI (DLD-1 colon): > 100 µM
- TGI (DMS 114 small cell lung): > 100 µM
- TGI (DMS 273 small cell lung): > 100 µM
- TGI (HOP-18 NSCLC): > 100 µM
- TGI (LXFL 529 NSCLC): > 100 µM
- TGI (RXF-631 renal): > 100 µM
- TGI (SNB-78 CNS): > 100 µM
- TGI (XF 498 CNS): > 100 µM
